Source: patent US9745360B2 (Sanofi, priority 2012, dated 2017)
pEC50: −log10 of the molar value. In brackets after ≈: the same amount, converted by molar mass. Like-named read-outs stand apart in the source and are kept apart here. *1 amine or outer side, *2 acyl side, *3 side chain or, on linkers, in order; H or OH if unused. Where a SMILES comes first, the peptide text is derived from it. Side-chain parts run from the residue outwards. [ ]: non-standard residue; d: D form. The star is where a group is joined. γGlu = O=C(O)[C@H](CCC(=O)[*:2])N[*:1]; Palmitoyl = CCCCCCCCCCCCCCCC(=O)*; αMeK = C[C@](N)(CCCCN)C(=O)O; Aib = CC(C)(N)C(=O)O

Key:
[1] = Solubility testing in buffer, HPLC-UV of supernatant; format: physicochemical; conditions: buffer, target concentration 1.0 mg/mL
Procedure: Solubility and chemical stability of peptidic compounds were assessed as described in Methods.

[2] = molecular target: T1, human GIP receptor (hGIP R) (Homo sapiens, UniProt P48546); test: cAMP response (HTRF) of HEK-293 cells stably expressing human GIP receptor; format: cell-based; conditions: Table 7; cAMP formation
T1 construct: expressed in transfected cells
T1 sequence (P48546 22-466): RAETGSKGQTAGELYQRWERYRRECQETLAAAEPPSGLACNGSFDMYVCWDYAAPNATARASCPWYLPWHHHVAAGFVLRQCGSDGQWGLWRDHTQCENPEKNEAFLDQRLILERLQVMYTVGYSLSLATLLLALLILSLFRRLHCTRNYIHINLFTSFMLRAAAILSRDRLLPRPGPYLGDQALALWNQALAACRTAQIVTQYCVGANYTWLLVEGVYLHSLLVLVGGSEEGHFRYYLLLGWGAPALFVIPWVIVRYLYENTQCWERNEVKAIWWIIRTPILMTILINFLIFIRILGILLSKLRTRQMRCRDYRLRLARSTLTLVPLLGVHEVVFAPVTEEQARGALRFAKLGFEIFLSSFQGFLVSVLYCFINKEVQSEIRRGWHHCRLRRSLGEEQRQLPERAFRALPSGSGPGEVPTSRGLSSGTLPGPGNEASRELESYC
Procedure: (§1) cAMP content of cells was determined using a kit from Cisbio Corp. (cat. no. 62AM4PEC) based on HTRF (Homogenous Time Resolved Fluorescence). For preparation, cells were split into T175 culture flasks and grown overnight to near confluency in medium (DMEM/10% FBS). Medium was then removed and cells washed with PBS lacking calcium and magnesium, followed by proteinase treatment with accutase (Sigma-Aldrich cat. no. A6964). Detached cells were washed and resuspended in assay buffer (1×HBSS; 20 mM HEPES, 0.1% BSA, 2 mM IBMX) and cellular density determined. They were then diluted to 400000 cells/ml and 25 μl-aliquots dispensed into the wells of 96-well plates. For measurement, 25 μl of test compound in assay buffer was added to the wells, followed by incubation for 30 minutes at room temperature.

[3] = system: female NMRI-mice; test: Gastric emptying and intestinal passage in female NMRI-mice; format: in vivo
Procedure: Female NMRI-mice of a body weight between 20 and 30 g were used. Mice were adapted to housing conditions for at least one week.
Mice were overnight fasted, while water remained available all the time. On the study day, mice were weighed, single-caged and allowed access to 500 mg of feed for 30 min, while water was removed. At the end of the 30 min feeding period, remaining feed was removed and weighed. Then, the test compound/reference compound or its vehicle in the control group was administered subcutaneously. 60 min later, to allow the compound to reach relevant plasma exposure, a coloured, non-caloric bolus was instilled via gavage into the stomach. After another 30 min, the animals were sacrificed and the stomach and the small intestine prepared. The filled stomach was weighed, emptied, carefully cleaned and dried and reweighed. The stomach content, calculated as weight of filled subtracted by the weight of emptied stomach, indicated the degree of gastric emptying. The small intestine was straightened without force and measured in length. Then the distance from the gastric beginning of the gut to the tip of the farthest travelled intestinal content bolus was measured. The intestinal passage was given as ratio in percent of the latter distance and the total length of the small intestine.
Statistical analyses were performed with Everstat 6.0 by 1-way-ANOVA, followed by Dunnett's as post-hoc test. Dunnett's Test was applied to compare versus vehicle control. Differences were considered statistically significant at the p<0.05 level.
Female NMRI-mice, weighing on average 25-30 g, received 1, 10 and 100 μg/kg of SEQ ID NO: 11, or phosphate buffered saline (vehicle control) subcutaneously, 30 min prior to the administration of the coloured bolus. 30 min later, the assessment of stomach contents and intestinal passage was done (FIG. 8).

[4] = system: female diabetic dbdb-mice; test: 4 weeks of treatment: glucose, HbA1c and oral glucose tolerance in female diabetic dbdb-mice (method 4); format: in vivo; conditions: 3 and 10 μg/kg s.c. once daily
Procedure: 8 week old, female diabetic dbdb-mice of mean non-fasted glucose value of 14.5 mmol/l and a body weight of 37-40 g were used. Mice were individually marked and were adapted to housing conditions for at least one week. 7 days prior to study start, baseline values for non-fasted glucose and HbA1c were determined, 5 days prior to study start, mice were assigned to groups and cages (5 mice per cage, 10 per group) according to their HbA1c values to ensure even distribution of lower and higher values between groups (stratification).
Mice were treated for 4 weeks, by once daily subcutaneous administration 3 hours prior to the dark phase (6 pm to 6 am). Blood samples from a tail tip incision were obtained for HbA1c on study day 21 and oral glucose tolerance was assessed in the 4th week. Oral glucose tolerance test was done in the morning without prior extra compound administration to majorly assess the effect of chronic treatment and less of acute compound administration. Mice were fasted for 4 hours prior to oral glucose administration (2 g/kg, t=0 min). Blood samples were drawn prior to glucose administration and at 15, 30, 60, 90, 120, and 180 min thereafter. Feed was returned after the last blood sampling. Results are represented as change from baseline, glucose in mmol/l and HbA1c in %.
Statistical analyses are performed with Everstat Version 6.0 based on SAS by 1-way-ANOVA, followed by Dunnett's post-hoc test against vehicle-control. Differences are considered statistically significant at the p<0.05 level.
Female dbdb-mice, received 3 and 10 μg/kg of SEQ ID NO: 11 or phosphate buffered saline (vehicle control) once daily, subcutaneously over four weeks. […] (FIG. 3).

[5] = system: non-fasted female diabetic dbdb-mice; test: Glucose lowering in non-fasted female diabetic dbdb-mice; format: in vivo; conditions: 3 μg/kg s.c., at 240 min, kept to 480 min, baseline 20-22 mmol/l
From the text: Female diabetic dbdb-mice of mean non-fasted glucose value of 20-22 mmol/l and a body weight of 42 g+/−0.6 g (SEM) were used. Mice were individually marked and were adapted to housing conditions for at least one week.
3-5 days prior to study start mice were assigned to groups and cages (4 mice per cage, 8 per group, control group 16) according to their non-fasted glucose values to ensure even distribution of lower and higher values between groups (stratification). On the study day, mice were weighed and dosed (t=0). Immediately prior to compound administration feed was removed while water remained available, and a first blood sample at a tail incision was drawn (baseline). Further blood samples were drawn at the tail incision at 30, 60, 90, 120, 240, 360, and 480 min.
Statistical analyses are performed with Everstat Version 6.0 based on SAS by 2-way-ANOVA on repeated measures, followed by Dunnett's post-hoc test against vehicle-control. Differences are considered statistically significant at the p<0.05 level.

[6] = molecular target: T2, human GLP-1 receptor (hGLP-1 R) (Homo sapiens, UniProt P43220); test: cAMP response (HTRF) of HEK-293 cells stably expressing human GLP-1 receptor; format: cell-based; conditions: Table 7; cAMP formation
T2 construct: expressed in transfected cells
T2 sequence (P43220 24-463): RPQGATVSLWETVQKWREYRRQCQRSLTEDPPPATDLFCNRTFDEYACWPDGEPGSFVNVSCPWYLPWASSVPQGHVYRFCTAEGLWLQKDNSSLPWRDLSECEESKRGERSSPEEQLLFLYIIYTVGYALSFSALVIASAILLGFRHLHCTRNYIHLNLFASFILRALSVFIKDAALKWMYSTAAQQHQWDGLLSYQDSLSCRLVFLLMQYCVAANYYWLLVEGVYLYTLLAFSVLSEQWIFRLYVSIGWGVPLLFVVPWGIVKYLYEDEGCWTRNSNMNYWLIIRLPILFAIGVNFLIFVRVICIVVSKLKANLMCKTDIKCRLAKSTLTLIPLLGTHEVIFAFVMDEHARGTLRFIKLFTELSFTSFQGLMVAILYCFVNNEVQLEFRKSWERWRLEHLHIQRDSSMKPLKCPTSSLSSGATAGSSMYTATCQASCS
Procedure: as §1

Q: For `CCCCCCCCCCCCCCCC(=O)N[C@@H](CCC(=O)NCCCC[C@H](NC(=O)[C@H](CCC(N)=O)NC(=O)[C@@H](NC(=O)[C@H](CO)NC(=O)[C@H](CC(C)C)NC(=O)[C@H](CC(=O)O)NC(=O)[C@H](CO)NC(=O)[C@@H](NC(=O)[C@H](Cc1ccccc1)NC(=O)[C@@H](NC(=O)CNC(=O)[C@H](CCC(=O)O)NC(=O)C(C)(C)NC(=O)[C@@H](N)Cc1ccc(O)cc1)[C@@H](C)O)[C@@H](C)O)[C@@H](C)CC)C(=O)N[C@@H](CCC(=O)O)C(=O)N[C@@H](CCC(=O)O)C(=O)N[C@@H](CCCNC(=N)N)C(=O)N[C@@H](C)C(=O)N[C@@H](C)C(=O)N[C@@](C)(CCCCN)C(=O)N[C@@H](CCC(=O)O)C(=O)N[C@@H](Cc1ccccc1)C(=O)N[C@H](C(=O)N[C@@H](CCC(=O)O)C(=O)N[C@@H](Cc1c[nH]c2ccccc12)C(=O)N[C@@H](CC(C)C)C(=O)N[C@@H](CCCCN)C(=O)N[C@@H](CC(N)=O)C(=O)N[C@H](C(=O)NCC(=O)N1CCC[C@H]1C(=O)N[C@@H](CO)C(=O)N[C@@H](CO)C(=O)NCC(=O)N[C@@H](C)C(=O)N1CCC[C@H]1C(=O)N1CCC[C@H]1C(=O)N1CCC[C@H]1C(=O)N[C@@H](CO)C(N)=O)[C@@H](C)O)[C@@H](C)CC)C(=O)O` [SEQ ID NO: 11, Y-Aib-E-G-T-F-T-S-D-L-S-I-Q-K(γE-x53)-E-E-R-A-A-(S)MeLys-E-F-I-E-W-L-K-N-T-G-P-S-S-G-A-P-P-P-S-NH2] (H-Y[Aib]EGTFTSDLSIQK([γGlu-Palmitoyl])EERAA[αMeK]EFIEWLKNTGPSSGAPPPS-NH2), which solubility at 2 h ([1]; pH 4.5, read-out: Solubility (pH 4.5)) is on record?
A: 964 µg/mL (≈ 208 µM)

Q: And the solubility at 2 h ([1]; pH 7.4, read-out: Solubility (pH 7.4))?
A: 900 µg/mL (≈ 194 µM)

Q: And the pEC50 [2]?
A: 11.15

Q: And the “increase of remaining gastric contents” value ([3]; 1 μg/kg s.c.)?
A: 17%

Q: And the “reduction of intestinal passage” value ([3]; 1 μg/kg s.c.)?
A: 44%

Q: What about the “increase of remaining gastric contents” value ([3]; 10 μg/kg s.c.) of the same compound?
A: 97%

Q: What about the “reduction of intestinal passage” value ([3]; 10 μg/kg s.c.) of the same compound?
A: 68%

Q: And the “increase of remaining gastric contents” value ([3]; 100 μg/kg s.c.)?
A: 106%

Q: And the “reduction of intestinal passage” value ([3]; 100 μg/kg s.c.)?
A: 69%

Q: What about the oral glucose tolerance ([4]; 4th week, 2 g/kg oral glucose) of the same compound?
A: improved oral glucose tolerance

Q: What about the “non-fasted glucose compared to vehicle control” value ([4]; four weeks) of the same compound?
A: reduced statistically significant

Q: And the “HbA1c compared to vehicle control” value ([4]; four weeks, p<0.05)?
A: prevented an increase of HbA1c in a statistical significant manner

Q: What about the “reduction of AUC under the glucose curve compared to vehicle control” value ([4]; oral glucose tolerance test, p<0.05) of the same compound?
A: reached statistical significance

Q: What about the “maximal effect, glucose reduction” value [5] of the same compound?
A: ~11 mmol/L

Q: And the pEC50 [6]?
A: 11.29
